Results taken from ChEMBL document CHEMBL3046582, “Antifeedant activity of sesquiterpenes from celastraceae” (1997).

Legend:
Assay type in all cases: functional
[1] = test system: Spodoptera littoralis; experiment: Antifeedant activity against newly ecdysed fifth-instar larval stage of Spodoptera littoralis in compound-pretreated lettuce leaf disks assessed as consumed area of leaf disks at 0.1 ug/cm'2 measured at 30 min intervals for 4-5 hr post-drug exposure by choice test
[2] = test system: Spodoptera littoralis; experiment: Antifeedant activity against newly ecdysed fifth-instar larval stage of Spodoptera littoralis in compound-pretreated lettuce leaf disks assessed as consumed area of leaf disks at 1 ug/cm'2 measured at 30 min intervals for 4-5 hr post-drug exposure by choice test
[3] = test system: Spodoptera littoralis; experiment: Antifeedant activity against newly ecdysed fifth-instar larval stage of Spodoptera littoralis in compound-pretreated lettuce leaf disks assessed as consumed area of leaf disks at 10 ug/cm'2 measured at 30 min intervals for 4-5 hr post-drug exposure by choice test
[4] = test system: Spodoptera littoralis; experiment: Antifeedant activity against newly ecdysed fifth-instar larval stage of Spodoptera littoralis in compound-pretreated lettuce leaf disks assessed as consumed area of leaf disks at 0.01 ug/cm'2 measured at 30 min intervals for 4-5 hr post-drug exposure by choice test

Structure (SMILES): COCCCC[C@@H]1[C@@H]2[C@@H](OC(C)=O)[C@@]3(OC2(C)C)[C@@](OC(C)=O)([C@@H](OC(C)=O)CC[C@]3(C)O)[C@@H]1OC(=O)c1ccccc1
- FR50 [1]: 0.23
- FR50 [2]: 0
- FR50 [3]: 0
- FR50 [4]: 0.69
